This is an account of results in US11571418B2, “Platinum compounds that inhibit constitutive STAT3 signaling and induce cell cycle arrest and apoptosis of malignant cells” (H. LEE MOFFITT CANCER CENTER AND RESEARCH INSTITUTE, INC., priority 2011, dated 2023).

Experiment [1] relates to malignant cells harboring constitutively-active Stat3. Description: Ki67 proliferation index by immunohistochemistry. Type of experiment: cell-based. Here is the method: FIGS. 5A and 5B. Evaluation for effects of PLATINUM-401 on cellular constitutive Stat3 activation and cell proliferation. Normal or malignant cells were treated with or without PLATINUM-401 and nuclear extracts were prepared for Stat3 DNA-binding activity assay with hSIE probe, or cells were processed for nuclear Ki67 immunohistochemistry. (FIG. 5A) EMSA analysis of Stat3 DNA-binding activity; (FIG. 5B) Graphical representations of quantified nuclear staining of Ki-67 proliferation index. Stat3:Stat3-DNA complexes in gels are labeled. The Ki-67 proliferation indexes were calculated as the percent positive tumor cells relative to the total number of cells. […]
Immunohistochemistry—The indirect peroxidase-antiperoxidase test was performed on cytospins prepared from cell lines (control and treated). […] The presence of Ki-67 nuclear staining was calculated as percent positive tumor cells in relation to the total number of cells.
The inventors further examined the biological effects of PLATINUM-401 and determined whether any changes might correlate with the inhibition of constitutively-active Stat3. […]
Changes in cell proliferation induced by treatment with PLATINUM-401 were assayed in terms of Ki67 proliferation index by immunohistochemistry. The presence of Ki-67 nuclear staining was calculated as the percent positive tumor cells in relation to the total number of cells.

For the next experiment, the target named is T1, E2F1 (Homo sapiens, UniProt Q01094).
T1 construct: made in house; host or cells: Sf-9 insect cells infected with baculovirus
Description: In vitro E2F1 DNA-binding activity assay, EMSA with DHFR promoter probe. The settings on record: cell lysates pre-incubated with compound before DHFR promoter probe. Here is the method: FIGS. 1A-1E. Inhibition of in vitro Stat3 DNA-binding activity by a platinum complex. Nuclear extracts or cell lysates containing activated Stat1, Stat3 and Stat5, or E2F1 prepared from NIH3T3/hEGFR that are stimulated with EGF or Sf-9 insect cells that are infected with baculovirus expressing Stat1, Stat3, Stat5, or E2F1, respectively, were treated with or without the indicated concentrations of platinum complex, PLATINUM-401 or Cisplatin, for 30 min at room temperature prior to incubation with radiolabeled oligonucleotide probes, and subjected to EMSA analysis. (FIG. 1A) (i) Stat1 and Stat3 binding activities to hSIE probe, (ii) Stat1 and Stat5 binding activities to MGFe probe, and (iii) plot of % oligonucleotide probe-STAT:STAT complexes versus concentration of PLATINUM-401. […] Positions of STAT: STAT-DNA complexes in gel are labeled. In (A) to (C), the control lanes represent DMSO (vehicle)-treatment.
In control studies, the effect of PLATINUM-401 was evaluated on the DNA-binding activity of the E2F1 protein that is unrelated to STATs.

The subject of the next experiment is Cyclin D1. Description: Cyclin D1 detection, in situ and Western blot. The settings on record: MDA-MB-435, 48 h. Format: cell-based, human. Here is the method: FIGS. 8A and 8B. Inhibition of Cyclin D1 and Bcl-xL induction by PLATINUM-401. Viral Src-transformed fibroblasts (NIH3T3/v-Src) and human breast cancer cell line MDA-MB-435 that contain constitutively-activated Stat3 were treated with or without platinum complex for 48 h. Cells were processed for immunohistochemistry, or cell lysates were prepared from cells and subjected to 5% PAGE and Western blot analysis, as indicated in “Materials and Methods.” (FIG. 8A) Detection of Cyclin D1; (FIG. 8B) Detection of Bcl-xL. Positions of Cyclin D1 and Bcl-xL proteins are shown. Beta-actin levels are shown for normalizing for equal total protein. Data are representative of 3 independent determinations.
Western blot—Whole-cell lysates were prepared in boiling sodium dodecyl sulfate (SDS) sample-loading buffer to extract total proteins from the cytoplasm and nucleus. Equivalent amounts of total cellular protein were electrophoresed on an SDS-10% polyacrylamide gel and transferred onto nitrocellulose membranes. Probing of nitrocellulose membranes with primary antibodies and detection of horseradish peroxidase-conjugated secondary antibodies by enhanced chemiluminescence (Amersham, Piscataway, N.J.) were performed as previously described (Garcia et al., 2001; Turkson et al., 2004b; Zhang et al., 2000). […]

A further experiment addresses T2, inactive Stat3 monomer (Homo sapiens, UniProt P40763).
T2 construct: made in house; host or cells: Sf-9 insect cells infected with recombinant baculovirus
As to the kind of experiment: Inactive STAT monomer added to activated Stat3 before EMSA (titration of compound). Format: binding. The settings on record: monomer added to activated Stat3, pre-incubated with compound 30 min. The text has this:
The interaction of PLATINUM-401 with Stat3 protein is independent of the activation status of the protein.

T2 sequence (P40763 whole entry): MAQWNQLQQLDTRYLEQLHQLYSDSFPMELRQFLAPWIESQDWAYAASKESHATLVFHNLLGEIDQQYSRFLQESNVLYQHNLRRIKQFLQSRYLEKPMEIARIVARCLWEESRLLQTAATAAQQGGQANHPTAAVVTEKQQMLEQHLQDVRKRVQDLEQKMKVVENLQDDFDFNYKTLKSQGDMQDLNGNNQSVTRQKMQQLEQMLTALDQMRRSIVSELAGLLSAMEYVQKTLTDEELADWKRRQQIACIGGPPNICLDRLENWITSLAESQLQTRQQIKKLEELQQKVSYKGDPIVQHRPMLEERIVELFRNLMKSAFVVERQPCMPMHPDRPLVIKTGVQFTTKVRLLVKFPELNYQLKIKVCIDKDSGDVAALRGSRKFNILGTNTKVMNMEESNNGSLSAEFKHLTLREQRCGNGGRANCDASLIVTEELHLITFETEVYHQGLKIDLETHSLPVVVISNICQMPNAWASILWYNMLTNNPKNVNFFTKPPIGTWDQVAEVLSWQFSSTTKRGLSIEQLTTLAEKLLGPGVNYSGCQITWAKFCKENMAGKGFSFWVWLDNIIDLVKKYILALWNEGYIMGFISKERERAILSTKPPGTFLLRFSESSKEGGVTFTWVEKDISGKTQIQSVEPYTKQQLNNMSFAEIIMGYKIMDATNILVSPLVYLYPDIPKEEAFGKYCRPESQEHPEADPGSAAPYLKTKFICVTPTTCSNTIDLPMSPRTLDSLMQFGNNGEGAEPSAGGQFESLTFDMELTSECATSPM
T1 sequence (Q01094 whole entry, species assumed): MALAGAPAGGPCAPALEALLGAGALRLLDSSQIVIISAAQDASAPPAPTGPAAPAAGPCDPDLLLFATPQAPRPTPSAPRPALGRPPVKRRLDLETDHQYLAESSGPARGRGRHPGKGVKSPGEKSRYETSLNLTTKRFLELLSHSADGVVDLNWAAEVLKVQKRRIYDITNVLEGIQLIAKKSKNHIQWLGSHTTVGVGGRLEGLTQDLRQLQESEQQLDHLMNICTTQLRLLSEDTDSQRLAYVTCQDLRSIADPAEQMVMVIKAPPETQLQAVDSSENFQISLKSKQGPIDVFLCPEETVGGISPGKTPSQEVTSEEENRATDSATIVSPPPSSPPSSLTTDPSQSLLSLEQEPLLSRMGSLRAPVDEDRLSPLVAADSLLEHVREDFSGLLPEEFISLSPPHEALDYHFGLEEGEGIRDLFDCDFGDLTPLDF

Regarding `CC(O)CN1CCN(CC(C)O)CC1` (stereo not shown) [PLATINUM-401], the Ki67 nuclear staining result in experiment [1] is recorded as “significant decreases”. Moreover, the “effect on E2F1 DNA-binding activity” value on E2F1 is recorded as “no significant effect”. The “Cyclin D1 level” value in the experiment on Cyclin D1 is “significantly diminished”. Moreover, the “interaction with inactive Stat3 monomer” value on inactive Stat3 monomer is listed as “interacts”.
